We go through three molecules from patent US12422369B2, “Immunosensor” (PPB Technology Pty Ltd, priority 2019, dated 2025).

The EC50 is the concentration needed to bring the measured effect to its halfway point.

Where “and” joins values, the source holds several entries; their conditions need not be identical. Equal entries are not always repeated.

Assay [1] relates to T9NB1-RLuc8. Description: BRET^2 competitive assay for TCC with nanobody sensor T9NB1-RLuc8/TCC-4′-S—(CH2)2—CO-GFP^2. The format is binding, camelid. Particulars: 10 nM T9NB1-RLuc8 and 10 nM TCC-4′-S—(CH2)2—CO-GFP^2, 2% DMSO/PBS, 5 minutes at 22° C. The protocol: Instrumentation: Simultaneous dual emission BRET measurements were carried out with a CLARIOstar microplate reader (BMG LabTech). BRET^2 measurements used the BRET^2 emission filter set comprising RLuc/CLZ400a emission filter (410 nm bandpass, 80 nm) and the GFP^2 emission filter (515 nm bandpass, 30 nm). BRET^2 ratios were calculated as ratios of integrated acceptor emission channel intensity to integrated donor emission channel intensity.
BRET^2 assay: All reactions were carried out in white 96-well plates (Perkin-Elmer, Australia). A final concentration of 10 nM of T9NB1-RLuc8 and 10 nM of TCC-4′-S—(CH2)2—CO-GFP^2 were used for all assays, in a final volume of 100 μL 2% DMSO in PBS.
To construct a calibration curve, 10 nM of T9NB1-RLuc8 and 10 nM of TCC-4′-S—(CH2)2—CO-GFP^2 were incubated for 5 minutes at 22° C. with a range of different final concentrations of TCC, namely 1, 3, 6.3, 12.5, 25, 50, 100 and 200 nM, added from a stock of TCC in DMSO or DMSO only (2% final concentration in PBS). At the end of the incubation time, 1 μL of coelenterazine 400a (1 mM stock) in EtOH was added to the reaction mixture (final [CLZ400a]=10 μM) and the luminescence intensities recorded immediately. The BRET^2 ratios were calculated and are presented as a function of the concentration of TCC in FIG. 8. […]
(In general: In BRET a luciferase serves as donor, and the signal depends on an acceptor being close.)

Assay [2] concerns the target Anti-FLAG mAb. Description: Competitive BRET binding assay for FLAG peptide, antibody-12/36-RLuc8 conjugate, Fluorostar plate-reader. Particulars: mAb-12/36-RLuc8 50 nM, 200 nM FLAG-GFP^2, Fluorostar. The protocol: In order to determine whether the immunosensors of the present invention can be used to detect and measure the concentration of an analyte, the antibody-12/36-RLuc8 conjugate was incubated with 200 nM FLAG-GFP^2 and varying concentrations of FLAG peptide (from 256 μM to less than 0.5 nM) for 5 minutes before coelenterazine 400a was added and the BRET ratio determined using the Fluorostar plate-reader as described in Example 9. The BRET ratios were plotted against Log [FLAG] values.

The test system of assay [3] is Anti-FLAG mAb. Put plainly: Competitive BRET calibration for FLAG peptide, mAb-24/36-RLuc8 conjugate, Clariostar plate-reader. The format is binding. As to conditions: 5 nM mAb-24/36-RLuc8, 10 nM FLAG-GFP^2, 5 minute incubation. The protocol: A calibration was also performed using the Clariostar plate-reader (BMG) and the antibody-24/36-RLuc8 conjugate. Measurements were made in the bioluminescence mode and the dual linear variable filters were set to 410-80 (Gain: 3300) for RLuc8 emission and 515-30 (Gain: 4095) for GFP^2 emission. An integration time of 1.54 s was used. Coelenterazine 400a was prepared by adding 100 μL ethanol to a dried aliquot (0.5 mM), with 1 μL added to the final assay to give a final concentration of 5 μM. A final concentration of 5 nM of RLuc8-conjugate and 10 nM GFP^2-FLAG was used for assays. The final assay volume was 100 μL with PBS (with BSA (1 mg/ml) used to make up the volume.
To construct a standard curve using the Clariostar, 5 nM mAb-24/36-RLuc8 conjugate was added to 10 nM FLAG-GFP^2 in PBS with BSA (1 mg/mL) and the mixture incubated with unlabelled FLAG peptide (various concentrations) for 5 minutes at 28° C. Coelenterazine 400a was added and the BRET response determined. BRET ratio was calculated by dividing the GFP^2 intensity (average 0-13.86 s) by the RLuc8 intensity (average 0-13.86 s). The BRET ratios were normalised using the normalisation function in Graphpad Prism 7 for Windows, plotted against Log [FLAG] values and fitted with a Log [Agonist] vs normalized response—variable slope model.

The nature of assay [4]: Luciferase activity with Coelenterazine 400a. The format is biochemical. Here is the method:
Luciferase activity: Coelenterazine 400a (Cayman Chemicals) (6-phenyl-2,8-bis(phenylmethyl)-imidazo[1,2-a]pyrazin-3(7H)-one) (1 mg) was dissolved in 10.2 mL ethanol and partitioned into 200 μL aliquots which were dried (Speedivac) and stored at −20° C. until use.
Coelenterazine 400a (50 nmol) was dissolved in 50 μL ethanol and 450 μL water was added. RLuc8 monomer (2.4 mg/mL) and RLuc8 dimer (4.8 mg/mL) were diluted in 1 mg/mL BSA in buffer. In a well of a white 96-well Optiplate (Perkin Elmer) was added TBS, PBS or 100 mM sodium phosphate pH 7.0, 2 μL luciferase enzyme (1/10 or 1/100 dilution) and 5 μL of 0.1 mM Coelenterazine 400a solution. The final volume in each well was 100 μL. The light produced was measured in a FLUOstar Optima (BMG Labtech) using luminescence optics and no filter.

With `O=C(Nc1ccc(Cl)cc1)Nc1ccc(Cl)c(Cl)c1` [TCC, triclocarban], in assay [1], the EC50 was 17.3 nM and 17 nM.
DYKDDDDK [FLAG peptide]: the values for the EC50 in assay [2] and in assay [3] were 274 nM and 1.41 nM, respectively.

B1: N-His-RLuc8: N-terminal hexahistidine tagged Renilla reniformis luciferase RLuc8-LPETGG, SEQ ID NO: 5 (protein)
chain: MGHHHHHHGTENLYFQGSASKVYDPEQRKRMITGPQWWARCKQMNVLDSFINYYDSEKHAENAVIFLHGNATSSYLWRHVVPHIEPVARCIIPDLIGMGKSGKSGNGSYRLLDHYKYLTAWFELLNLPKKIIFVGHDWGAALAFHYAYEHQDRIKAIVHMESVVDVIESWDEWPDIEEDIALIKSEEGEKMVLENNFFVETVLPSKIMRKLEPEEFAAYLEPFKEKGEVRRPTLSWPREIPLVKGGKPDVVQIVRNYNAYLRASDDLPKLFIESDPGFFSNAIVEGAKKFPNTEFVKVKGLHFLQEDAPDEMGKYIKSFVERVLKNEQLPETGGAALEAS
modifications: N-His-RLuc8
On to B1, for which the “Luciferase activity, monomer versus dimer” value in assay [4] (Coelenterazine 400a, FLUOstar Optima, no filter) is reported as “more active than the dimeric form”. Also, the “Luciferase activity over time” value in assay [4] (after Coelenterazine 400a addition, data not shown) is “decreased very rapidly (over a few seconds)”.
